Source: ChEMBL document CHEMBL6115036, “Exploration of membrane-active cephalosporin derivatives as potent antibacterial agents against Staphylococcus aureus biofilms and persisters” (Eur J Med Chem, 2025)
Activity calls are given as the source filed them. No cut-off for these calls is given here.

Tests used:
Staphylococcus aureus [1] = assay: Antibacterial activity against Staphylococcus aureus infected in Kunming mouse model of subcutaneous abscess assessed as reduction in number of bacteria in skin tissue at 5 to 10 mg/kg, sc measured after 48 hrs; assay type: functional, organism-based; settings: dose 5-10 mg/kg
Staphylococcus aureus [2] = assay: Disruption of cell membrane in Staphylococcus aureus assessed as nucleic acid leakage at 32 ug/ml measured after 2 hrs by fluorescence based analysis; assay type: functional, organism-based; settings: dose 32.0 µg/ml
[3] = system: Stenotrophomonas maltophilia; assay: Antimicrobial activity against Stenotrophomonas maltophilia incubated for 16 to 18 hrs by broth dilution assay; assay type: functional; settings: time 16-18 hrs
Staphylococcus aureus [4] = assay: Antibacterial activity against Staphylococcus aureus infected in Kunming mouse model of subcutaneous abscess assessed as decrease in inflammatory cell infiltration in skin tissue at 10 mg/kg, sc measured after 48 hrs by H and E staining based analysis; assay type: functional, organism-based
Staphylococcus aureus [5] = assay: Antibacterial activity against Staphylococcus aureus assessed as effect on quiescent cells at 100 to 200 times MIC incubated for 24 hrs; assay type: functional, organism-based
Enterococcus faecalis = assay: Antimicrobial activity against Enterococcus faecalis incubated for 16 to 18 hrs by broth dilution assay; assay type: functional; settings: time 16-18 hrs
Staphylococcus aureus [6] = assay: Antibacterial activity against Staphylococcus aureus in presence of 50% FBS; assay type: functional, organism-based
Staphylococcus aureus [7] = assay: Induction of resistance development in drug-resistant Staphylococcus aureus at sub-MIC measured after 20 passages in presence of ampicillin sodium; assay type: functional, organism-based
Staphylococcus aureus [8] = assay: Induction of resistance development in drug-resistant Staphylococcus aureus at sub-MIC measured after 20 passages in presence of vancomycin; assay type: functional, organism-based
Staphylococcus aureus [9] = assay: Antibacterial activity against Staphylococcus aureus infected in Kunming mouse model of subcutaneous abscess assessed as decrease in inflammation in skin tissue at 5 mg/kg, sc measured after 48 hrs by H and E staining based analysis; assay type: functional, organism-based
[10] = Toxicity in Kunming mouse model of subcutaneous abscess infected with Staphylococcus aureus assessed as damage in lung at 5 to 10 mg/kg, sc measured after 48 hrs by H and E staining based analysis; assay type: organism-based; settings: in vivo, dose 5-10 mg/kg
Staphylococcus aureus [11] = assay: Antibacterial activity against rifampicin-induced persistant Staphylococcus aureus assessed as decrease in CFU at 200 times MIC measured for 10 hrs; assay type: functional, organism-based
Staphylococcus aureus [12] = assay: Inhibition of biofilm formation in Staphylococcus aureus assessed as decrease in bacterial count at 32 times MIC incubated for 24 hrs by CLSM analysis; assay type: functional, organism-based
Staphylococcus aureus [13] = assay: Induction of resistance development in drug-resistant Staphylococcus aureus at sub-MIC measured after 20 passages in presence of levofloxacin; assay type: functional, organism-based
[14] = Toxicity in Kunming mouse model of subcutaneous abscess infected with Staphylococcus aureus assessed as histopathological abnormalities in kidney at 5 to 10 mg/kg, sc measured after 48 hrs by H and E staining based analysis; assay type: organism-based; settings: in vivo, dose 5-10 mg/kg
Staphylococcus aureus [15] = assay: Inhibition of metabolic activity in Staphylococcus aureus incubated for 6 hrs by Alamar blue assay; assay type: functional, organism-based
Staphylococcus aureus [16] = assay: Antibacterial activity against Staphylococcus aureus infected in Kunming mouse model of subcutaneous abscess assessed as decrease in neutrophil level in skin tissue at 5 mg/kg, sc measured after 48 hrs by H and E staining based analysis; assay type: functional, organism-based
[17] = Toxicity in Kunming mouse model of subcutaneous abscess infected with Staphylococcus aureus assessed as damage in liver at 5 to 10 mg/kg, sc measured after 48 hrs by H and E staining based analysis; assay type: organism-based; settings: in vivo, dose 5-10 mg/kg
Staphylococcus aureus [18] = assay: Bactericidal activity against Staphylococcus aureus assessed as reduction in bacterial colony count at 4 to 8 times MIC incubated for 8 hrs by time kill assay; assay type: functional, organism-based
[19] = Hemolytic activity in sheep red blood cells incubated for 1 hr; assay type: toxicity, cell-based, Ovis aries, Erythrocyte
Staphylococcus aureus [20] = assay: Induction of intracellular ROS accumulation in Staphylococcus aureus at 1 to 4 times MIC incubated overnight by DCFH-DA dye based analysis; assay type: functional, organism-based
Escherichia coli = assay: Antimicrobial activity against Escherichia coli incubated for 16 to 18 hrs by broth dilution assay; assay type: functional; settings: time 16-18 hrs
Staphylococcus aureus [21] = assay: Disruption of cell membrane in Staphylococcus aureus assessed as protein leakage at 32 ug/ml measured after 2 hrs by fluorescence based analysis; assay type: functional, organism-based; settings: dose 32.0 µg/ml
[22] = Toxicity in Kunming mouse model of subcutaneous abscess infected with Staphylococcus aureus assessed as damage in heart at 5 to 10 mg/kg, sc measured after 48 hrs by H and E staining based analysis; assay type: organism-based; settings: in vivo, dose 5-10 mg/kg
Staphylococcus aureus [23] = assay: Induction of resistance development in drug-resistant Staphylococcus aureus at sub-MIC measured after 20 passages in presence of rifampicin; assay type: functional, organism-based
[24] = Toxicity in Kunming mouse model of subcutaneous abscess infected with Staphylococcus aureus assessed as histopathological abnormalities in spleen at 5 to 10 mg/kg, sc measured after 48 hrs by H and E staining based analysis; assay type: organism-based; settings: in vivo, dose 5-10 mg/kg
Staphylococcus aureus [25] = assay: Inhibition of biofilm formation in Staphylococcus aureus assessed as reduction in number of live bacterial count at 16 times MIC incubated for 24 hrs; assay type: functional
[26] = Cytotoxicity against HUVEC cells incubated for 24 hrs by CCK8 assay; assay type: toxicity, cell-based; settings: human
[27] = Toxicity in Kunming mouse model of subcutaneous abscess infected with Staphylococcus aureus assessed as damage in kidney at 5 to 10 mg/kg, sc measured after 48 hrs by H and E staining based analysis; assay type: organism-based; settings: in vivo, dose 5-10 mg/kg
[28] = Toxicity in Kunming mouse model of subcutaneous abscess infected with Staphylococcus aureus assessed as damage in spleen at 5 to 10 mg/kg, sc measured after 48 hrs by H and E staining based analysis; assay type: organism-based; settings: in vivo, dose 5-10 mg/kg
Staphylococcus aureus [29] = assay: Induction of resistance development in drug-resistant Staphylococcus aureus at sub-MIC measured after 20 passages in presence of ciprofloxacin; assay type: functional, organism-based
[30] = Toxicity in Kunming mouse model of subcutaneous abscess infected with Staphylococcus aureus assessed as histopathological abnormalities in lung at 5 to 10 mg/kg, sc measured after 48 hrs by H and E staining based analysis; assay type: organism-based; settings: in vivo, dose 5-10 mg/kg
[31] = Toxicity in Kunming mouse model of subcutaneous abscess infected with Staphylococcus aureus assessed as histopathological abnormalities in heart at 5 to 10 mg/kg, sc measured after 48 hrs by H and E staining based analysis; assay type: organism-based; settings: in vivo, dose 5-10 mg/kg
Staphylococcus aureus [32] = assay: Induction of resistance development in drug-resistant Staphylococcus aureus at sub-MIC measured after 20 passages in presence of cefuroxime sodium; assay type: functional, organism-based
Staphylococcus aureus [33] = assay: Antibacterial activity against Staphylococcus aureus in presence of 50% sheep plasma; assay type: functional, organism-based
Staphylococcus aureus [34] = assay: Antimicrobial activity against Staphylococcus aureus incubated for 16 to 18 hrs by broth dilution assay; assay type: functional; settings: time 16-18 hrs
Staphylococcus aureus [35] = assay: Induction of resistance development in drug-resistant Staphylococcus aureus at sub-MIC measured after 20 passages in presence of norfloxacin; assay type: functional, organism-based
Staphylococcus aureus [36] = assay: Induction of resistance development in drug-resistant Staphylococcus aureus assessed as fold increase in MIC of levofloxacin at sub-MIC measured after 20 passages relative to control; assay type: functional
Staphylococcus aureus [37] = assay: Antibacterial activity against Staphylococcus aureus infected in Kunming mouse model of subcutaneous abscess assessed as reduction in bacterial load in skin tissue at 10 mg/kg, sc measured after 48 hrs relative to control; assay type: functional; parameters: scale not given: the % may be the effect or the level left
Staphylococcus aureus [38] = assay: Antibacterial activity against Staphylococcus aureus infected in Kunming mouse model of subcutaneous abscess assessed as surviving bacteria in skin tissue at 10 mg/kg, sc measured after 48 hrs relative to control; assay type: functional
[39] = Toxicity in Kunming mouse model of subcutaneous abscess infected with Staphylococcus aureus assessed as histopathological abnormalities in liver at 5 to 10 mg/kg, sc measured after 48 hrs by H and E staining based analysis; assay type: organism-based; settings: in vivo, dose 5-10 mg/kg
Staphylococcus aureus [40] = assay: Induction of resistance development in Staphylococcus aureus at sub-MIC measured after 20 passages; assay type: functional, organism-based
Staphylococcus aureus [41] = assay: Bactericidal activity against Staphylococcus aureus measured for 3 to 6 hrs in presence of 50% sheep plasma; assay type: functional, organism-based; settings: time 3-6 hrs
Staphylococcus aureus [42] = assay: Induction of resistance development in drug-resistant Staphylococcus aureus at sub-MIC measured after 20 passages in presence of linezolid; assay type: functional, organism-based
[43] = Cytotoxicity against human HeLa cells incubated for 24 hrs by CCK8 assay; assay type: toxicity, cell-based

Question: Which Activity (Staphylococcus aureus [1]) does the source give for CCCCCCCCCC[n+]1ccc(-c2cc[n+](CC3=C(C(=O)[O-])N4C(=O)[C@@H](NC(=O)Cc5ccccc5)[C@H]4SC3)cc2)cc1.O=C([O-])C(F)(F)F here?
Answer: Its Activity is “Active”.

Question: And the Activity (Staphylococcus aureus [2])?
Answer: The Activity was “inactive”.

Question: What about the MIC [3] of the same compound?
Answer: The MIC was 128 µg/mL.

Question: What about the Activity (Staphylococcus aureus [4]) of the same compound?
Answer: The Activity was “Active; Compound Activity On Skin Was Similar To Healthy Mouse”.

Question: What about the Activity (Staphylococcus aureus [5]) of the same compound?
Answer: The Activity was “inactive”.

Question: And the MIC (Enterococcus faecalis)?
Answer: Its MIC is 4 µg/mL.

Question: And the Activity (Staphylococcus aureus [6])?
Answer: Its Activity is “Active; Mic Value Of Compound In Serum Was Equal To Mic In Mhb Medium”.

Question: And the Activity (Staphylococcus aureus [7])?
Answer: The Activity was “inactive”.

Question: What about the Activity (Staphylococcus aureus [8]) of the same compound?
Answer: Its Activity is “inactive”.

Question: And the Activity (Staphylococcus aureus [9])?
Answer: The Activity was “Active”.

Question: What about the Activity [10] of the same compound?
Answer: Its Activity is “Non-toxic”.

Question: And the Activity (Staphylococcus aureus [11])?
Answer: The Activity was “inactive”.

Question: What about the inhibition (Staphylococcus aureus [12]) of the same compound?
Answer: Its inhibition is “inactive”.

Question: What about the Activity (Staphylococcus aureus [13]) of the same compound?
Answer: The Activity was “inactive”.

Question: And the Activity [14]?
Answer: Its Activity is “Non-toxic”.

Question: And the inhibition (Staphylococcus aureus [15])?
Answer: The inhibition was “Dose-dependent-effect”.

Question: And the Activity (Staphylococcus aureus [16])?
Answer: The Activity was “Active”.

Question: What about the Activity [17] of the same compound?
Answer: Its Activity is “Non-toxic”.

Question: What about the Activity (Staphylococcus aureus [18]) of the same compound?
Answer: The Activity was “Active”.

Question: What about the HC50 at 1 h [19] of the same compound?
Answer: The HC50 at 1 h was > 1280 µg/mL.

Question: What about the Activity (Staphylococcus aureus [20]) of the same compound?
Answer: Its Activity is “inactive”.

Question: What about the MIC (Escherichia coli) of the same compound?
Answer: Its MIC is 128 µg/mL.

Question: And the Activity (Staphylococcus aureus [21])?
Answer: Its Activity is “inactive”.

Question: What about the Activity [22] of the same compound?
Answer: Its Activity is “Non-toxic”.

Question: What about the Activity (Staphylococcus aureus [23]) of the same compound?
Answer: The Activity was “inactive”.

Question: What about the Activity [24] of the same compound?
Answer: Its Activity is “Non-toxic”.

Question: What about the Activity (Staphylococcus aureus [25]) of the same compound?
Answer: Its Activity is ~1 10^3CFU/ml.

Question: And the CC50 at 24 h [26]?
Answer: The CC50 at 24 h was > 64 µg/mL.

Question: And the Activity [27]?
Answer: The Activity was “Non-toxic”.

Question: What about the Activity [28] of the same compound?
Answer: The Activity was “Non-toxic”.

Question: What about the Activity (Staphylococcus aureus [29]) of the same compound?
Answer: Its Activity is “inactive”.

Question: And the Activity [30]?
Answer: The Activity was “Non-toxic”.

Question: What about the Activity [31] of the same compound?
Answer: Its Activity is “Non-toxic”.

Question: And the Activity (Staphylococcus aureus [32])?
Answer: The Activity was “inactive”.

Question: What about the Activity (Staphylococcus aureus [33]) of the same compound?
Answer: The Activity was “Active; Mic Value Of Compound In Plasma Was Equal To Mic In Mhb Medium”.

Question: What about the MIC (Staphylococcus aureus [34]) of the same compound?
Answer: Its MIC is 0.063 µg/mL.

Question: What about the Activity (Staphylococcus aureus [35]) of the same compound?
Answer: Its Activity is “inactive”.

Question: What about the “fold change (FC)” value (Staphylococcus aureus [36]) of the same compound?
Answer: The value was 8.

Question: What about the Activity (Staphylococcus aureus [37]) of the same compound?
Answer: Its Activity is 99.98%.

Question: And the Activity (Staphylococcus aureus [38])?
Answer: Its Activity is 0.02%.

Question: And the Activity [39]?
Answer: The Activity was “Non-toxic”.

Question: And the Activity (Staphylococcus aureus [40])?
Answer: Its Activity is “inactive”.

Question: What about the Activity (Staphylococcus aureus [41]) of the same compound?
Answer: Its Activity is “Active”.

Question: What about the Activity (Staphylococcus aureus [42]) of the same compound?
Answer: Its Activity is “inactive”.

Question: And the CC50 at 24 h [43]?
Answer: Its CC50 at 24 h is 26.9 µg/mL.
